target: T1, PIKfyve (Homo sapiens, UniProt Q9Y2I7); test: Degradation of PIKfyve proteins in VCaP tumor cells (24 h, Western blot); type: cell-based; settings: 37° C., compared with DMSO control, WB, read-out: DC50 (concentration that achieves 50% degradation activity)
T1 construct: endogenous in cells; host or cells: VCaP
Protocol: Method: 200 μL of cells at a density of 5×10^6 cells/ml were inoculated into a 6-well plate, and then different concentrations of drugs were added. The cells were treated at 37° C. for 24 h. The […] was collected and washed with PBS twice. Then, 100-200 μL of 1×SDS lysate was added, and the cell lysate was collected into a centrifuge tube. The cells were disrupted ultrasonically for 10-20 sec, and boiled for 10 min. Protein samples were subjected to SDS-PAGE electrophoresis at a voltage of 90 V, transferred to PVDF membranes at 110 V, blocked with 5% BSA for 4 h, incubated with primary antibodies (PIKfyve, GAPDH) at 4° C. overnight, and incubated with secondary antibodies (anti-Rabbit IgG or anti-Mouse IgG) at room temperature. The membranes were washed with TBST buffer, developed with an ECL developing solution, and then imaged to obtain protein band signals, with single-concentration WB results as shown in FIG. 1. Compared with the DMSO control group, the concentration that achieves 50% degradation activity is defined as DC50.

T1 sequence (Q9Y2I7 whole entry): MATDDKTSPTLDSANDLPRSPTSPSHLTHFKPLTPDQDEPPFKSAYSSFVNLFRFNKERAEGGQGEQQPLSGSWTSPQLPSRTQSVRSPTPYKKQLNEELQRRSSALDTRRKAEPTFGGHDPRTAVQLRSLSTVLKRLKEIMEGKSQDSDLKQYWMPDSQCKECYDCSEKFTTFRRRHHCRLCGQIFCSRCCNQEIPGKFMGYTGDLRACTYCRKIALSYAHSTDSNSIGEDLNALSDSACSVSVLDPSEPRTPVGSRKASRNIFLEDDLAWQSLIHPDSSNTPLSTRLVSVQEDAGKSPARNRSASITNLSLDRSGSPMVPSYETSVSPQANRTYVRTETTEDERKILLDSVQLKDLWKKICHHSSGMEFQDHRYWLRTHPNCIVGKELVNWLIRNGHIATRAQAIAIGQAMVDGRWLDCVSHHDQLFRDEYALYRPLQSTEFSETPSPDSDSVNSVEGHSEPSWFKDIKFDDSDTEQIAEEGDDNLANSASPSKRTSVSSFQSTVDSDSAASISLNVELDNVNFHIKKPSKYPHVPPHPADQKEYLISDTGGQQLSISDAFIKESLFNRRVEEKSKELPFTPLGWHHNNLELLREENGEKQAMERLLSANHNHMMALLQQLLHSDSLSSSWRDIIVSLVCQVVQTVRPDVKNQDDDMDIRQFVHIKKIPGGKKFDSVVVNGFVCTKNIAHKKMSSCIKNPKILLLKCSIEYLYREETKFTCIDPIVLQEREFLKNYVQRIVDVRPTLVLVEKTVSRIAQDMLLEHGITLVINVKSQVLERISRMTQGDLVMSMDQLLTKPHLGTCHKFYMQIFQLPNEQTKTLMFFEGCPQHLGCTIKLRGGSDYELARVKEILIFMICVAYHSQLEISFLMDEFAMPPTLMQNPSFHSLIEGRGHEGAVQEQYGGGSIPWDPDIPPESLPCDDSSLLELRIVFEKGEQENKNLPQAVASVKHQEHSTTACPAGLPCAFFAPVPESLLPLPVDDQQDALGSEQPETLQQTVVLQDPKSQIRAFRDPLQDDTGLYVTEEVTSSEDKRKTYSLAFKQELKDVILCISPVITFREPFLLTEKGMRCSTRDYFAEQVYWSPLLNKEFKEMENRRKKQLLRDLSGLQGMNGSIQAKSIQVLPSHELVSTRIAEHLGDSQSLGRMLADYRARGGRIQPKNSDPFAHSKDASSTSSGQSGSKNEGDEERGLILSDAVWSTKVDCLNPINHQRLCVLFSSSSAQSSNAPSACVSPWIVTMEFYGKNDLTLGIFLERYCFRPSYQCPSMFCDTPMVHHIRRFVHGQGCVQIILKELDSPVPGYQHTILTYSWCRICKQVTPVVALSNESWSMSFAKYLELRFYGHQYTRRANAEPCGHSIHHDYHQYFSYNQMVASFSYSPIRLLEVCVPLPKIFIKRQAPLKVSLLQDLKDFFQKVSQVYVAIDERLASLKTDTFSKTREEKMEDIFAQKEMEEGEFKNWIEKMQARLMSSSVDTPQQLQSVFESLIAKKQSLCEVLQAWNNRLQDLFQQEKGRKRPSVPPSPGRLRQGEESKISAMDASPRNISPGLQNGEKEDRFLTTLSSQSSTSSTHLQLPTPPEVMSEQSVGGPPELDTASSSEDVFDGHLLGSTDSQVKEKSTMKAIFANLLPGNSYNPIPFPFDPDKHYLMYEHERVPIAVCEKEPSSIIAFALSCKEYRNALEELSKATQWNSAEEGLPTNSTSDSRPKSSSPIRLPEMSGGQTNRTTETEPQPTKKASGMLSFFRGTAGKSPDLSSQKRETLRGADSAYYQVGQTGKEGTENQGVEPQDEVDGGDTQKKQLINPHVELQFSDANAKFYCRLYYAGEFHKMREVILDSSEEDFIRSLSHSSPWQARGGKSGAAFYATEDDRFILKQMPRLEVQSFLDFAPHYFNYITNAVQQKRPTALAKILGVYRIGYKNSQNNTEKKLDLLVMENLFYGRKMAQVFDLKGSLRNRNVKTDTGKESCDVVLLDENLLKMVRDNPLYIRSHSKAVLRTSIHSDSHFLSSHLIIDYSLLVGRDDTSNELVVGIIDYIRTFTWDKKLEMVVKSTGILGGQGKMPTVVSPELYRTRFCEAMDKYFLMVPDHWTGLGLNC

Row | SMILES | DC50
1 | Cc1cccc(/C=N/Nc2cc(N3CCOCC3)nc(OCCNC(=O)CCCCCCCCC(=O)N[C@H](C(=O)N3C[C@H](O)C[C@H]3C(=O)NCc3ccc(-c4scnc4C)cc3)C(C)(C)C)n2)c1 [Example 64, N^1—((S)-1-((2S,4R)-4-hydroxy-2-((4-(4-methylthiazol-5-yl)benzyl)carbamoyl)pyrrolidine-1-yl)-3,3-dimethyl-1-oxobutan-2-yl)-N^10-(2-((4-(2-((E)-3-methylbenzylidene) hydrazino)-6-morpholinopyrimidin-2-yl)oxy)ethyl)decanediamide] | 100 to 10000 nM
2 | Cc1cccc(-c2ccn(-c3cc(N4CCOCC4)nc(OC4CCN(c5ccc(NC(=O)CC[C@H](NC(=O)[C@@H]6C[C@@H](O)CN6C(=O)[C@@H](NC(=O)C6(F)CC6)C(C)(C)C)c6ccc(-c7scnc7C)cc6)cc5)CC4)n3)n2)c1 [Example 68, (2S,4R)-1-((S)-2-(1-fluorocyclopropane-1-carboxamido)-3,3-dimethylbutanoyl)-4-hydroxy-N—((S)-1-(4-(4-methylthiazol-5-yl)phenyl)-4-((4-(4-((4-morpholino-6-(3-(m-tolyl)-1H-pyrazol-1-yl)pyrimidin-2-yl)oxy)piperidin-1-yl)phenyl)amino)-4-oxobutyl)pyrrolidine-2-carboxamide] | 1 to 100 nM
3 | Cc1cccc(/C=N/Nc2cc(N3CCOCC3)nc(OCCc3ccc(NC(=O)CCCNC(=O)CSC(C)(C)[C@H](NC(=O)C4(F)CC4)C(=O)N4C[C@H](O)C[C@H]4C(=O)NCc4ccc(-c5scnc5C)cc4)cc3)n2)c1 [Example 59, (2S,4R)-1-((R)-2-(1-fluorocyclopropane-1-carboxamido)-3-methyl-3-((2-((4-((4-(2-((4-(2-((E)-3-methylbenzylidene)hydrazino)-6-morpholinopyrimidin-2-yl)oxy)ethyl)phenyl)amino)-4-oxobutyl)amino)-2-oxoethyl)thio)butanoyl)-4-hydroxy-N-(4-(4-methylthiazol-5-yl)benzyl)pyrrolidine-2-carboxamide] | 100 to 10000 nM
4 | Cc1cccc(-c2ccn(-c3cc(N4CCOCC4)nc(OCCc4ccc(NC(=O)NC5CN(C(=O)C[C@H](NC(=O)[C@@H]6C[C@@H](O)CN6C(=O)[C@@H](NC(=O)C6(F)CC6)C(C)(C)C)c6ccc(-c7scnc7C)cc6)C5)cc4)n3)n2)c1 [Example 73, (2S,4R)-1-((S)-2-(1-fluorocyclopropane-1-carboxamido)-3,3-dimethylbutanoyl)-4-hydroxy-N—((S)-1-(4-(4-methylthiazol-5-yl)phenyl)-3-(3-(3-(4-(2-((4-morpholino-6-(3-(m-tolyl)-1H-pyrazol-1-yl)pyrimidin-2-yl)oxy)ethyl)phenyl)ureido)azetidin-1-yl)-3-oxopropyl) pyrrolidine-2-carboxamide] | 1 to 100 nM
5 | Cc1cccc(-c2ccn(-c3cc(N4CCOCC4)nc(OCCc4ccc(C#CC5CCN(C(=O)C[C@H](NC(=O)[C@@H]6C[C@@H](O)CN6C(=O)[C@@H](NC(=O)C6(F)CC6)C(C)(C)C)c6ccc(-c7scnc7C)cc6)CC5)cc4)n3)n2)c1 [Example 70, (2S,4R)-1-((S)-2-(1-fluorocyclopropane-1-carboxamido)-3,3-dimethylbutanoyl)-4-hydroxy-N—((S)-1-(4-(4-methylthiazol-5-yl)phenyl)-3-(4-((4-(2-((4-morpholino-6-(3-(m-tolyl)-1H-pyrazol-1-yl)pyrimidin-2-yl)oxy)ethyl)phenyl)ethynyl)piperidin-1-yl)-3-oxopropyl) pyrrolidine-2-carboxamide] | 1 to 100 nM
6 | Cc1cccc(/C=N/Nc2cc(N3CCOCC3)nc(OCCc3ccc(NC(=O)CCCCCC(=O)N[C@H](C(=O)N4C[C@H](O)C[C@H]4C(=O)NCc4ccc(-c5scnc5C)cc4)C(C)(C)C)cc3)n2)c1 [Example 42, N^1—((S)-1-((2S,4R)-4-hydroxy-2-((4-(4-methylthiazol-5-yl)benzyl)carbamoyl)pyrrolidine-1-yl)-3,3-dimethyl-1-oxobutan-2-yl)-N^7-(4-(2-((4-(2-((E)-3-methylbenzylidene) hydrazino)-6-morpholinopyrimidin-2-yl)oxy)ethyl)phenyl)heptanediamide] | 1 to 100 nM
7 | Cc1cccc(/C=N/Nc2cc(N3CCOCC3)nc(OCCc3ccc(NC(=O)CCCCCNC(=O)CC[C@H](NC(=O)[C@@H]4C[C@@H](O)CN4C(=O)[C@@H](NC(=O)C4(F)CC4)C(C)(C)C)c4ccc(-c5scnc5C)cc4)cc3)n2)c1 [Example 52, (2S,4R)-1-((S)-2-(1-fluorocyclopropane-1-carboxamido)-3,3-dimethylbutanoyl)-4-hydroxy-N—((S)-4-((6-((4-(2-((4-(2-((E)-3-methylbenzylidene)hydrazino)-6-morpholinopyrimidin-2-yl)oxy)ethyl)phenyl)amino)-6-oxohexyl)amino)-1-(4-(4-methylthiazol-5-yl)phenyl)4-oxobutyl)pyrrolidine-2-carboxamide] | 1 to 100 nM
8 | Cc1cccc(/C=N/Nc2cc(N3CCOCC3)nc(OCCc3ccc(NC(=O)CCCCCCC(=O)Nc4cccc5c4CN(C4CCC(=O)NC4=O)C5=O)cc3)n2)c1 (stereo not shown) [Example 21, (E)-N^1-(2-(2,6-dioxopiperidin-3-yl)-1-oxoisoindolin-4-yl)-N^8-(4-(2-((4-(2-(3-methylbenzylidene)hydrazino)-6-morpholinopyrimidin-2-yl)oxy)ethyl)phenyl)octanediamide] | 1 to 100 nM
9 | Cc1cccc(/C=N/Nc2cc(N3CCOCC3)nc(OCCc3ccc(NC(=O)CSC(C)(C)[C@H](NC(=O)C4(F)CC4)C(=O)N4C[C@H](O)C[C@H]4C(=O)NCc4ccc(-c5scnc5C)cc4)cc3)n2)c1 [Example 57, (2S,4R)-1-((R)-2-(1-fluorocyclopropane-1-carboxamido)-3-methyl-3-((2-((4-(2-((4-(2-((E)-3-methylbenzylidene)hydrazino)-6-morpholinopyrimidin-2-yl)oxy)ethyl)phenyl)amino)-2-oxoethyl)thio)butanoyl)-4-hydroxy-N-(4-(4-methylthiazol-5-yl)benzyl)pyrrolidine-2-carboxamide] | 1 to 100 nM
10 | Cc1cccc(/C=N/Nc2cc(N3CCOCC3)nc(OCCc3ccc(NC(=O)CCCCCCCCCNc4ccc5c(c4)C(=O)N(C4CCC(=O)NC4=O)C5=O)cc3)n2)c1 (stereo not shown) [Example 19, (E)-10-((2-(2,6-dioxopiperidin-3-yl)-1,3-dioxoisoindolin-5-yl)amino)-N-(4-(2-((4-(2-(3-methylbenzylidene)hydrazino)-6-morpholinopyrimidin-2-yl)oxy)ethyl)phenyl) decanamide] | 100 to 10000 nM

Results, then the compound that gave them:

Row | DC50 | SMILES
11 | 100 to 10000 nM | Cc1cccc(-c2ccn(-c3cc(N4CCOCC4)nc(OC4CCN(c5ccc(CN6CCN(c7cc8c(cc7F)C(=O)N(C7CCC(=O)NC7=O)C8=O)CC6)cc5)CC4)n3)n2)c1 (stereo not shown) [Example 95, 2-(2,6-Dioxopiperidin-3-yl)-5-fluoro-6-(4-(4-(4-((4-morpholino-6-(3-(m-tolyl)-1H-pyrazol-1-yl)pyrimidin-2-yl)oxy)piperidin-1-yl)benzyl)piperazin-1-yl)isoindoline-1,3-dione]
12 | 100 to 10000 nM | Cc1cccc(-c2ccn(-c3cc(N4CCOCC4)nc(OC4CCN(c5ccc(NC(=O)NC6CCN(c7cc8c(cc7F)C(=O)N(C7CCC(=O)NC7=O)C8=O)CC6)cc5)CC4)n3)n2)c1 (stereo not shown) [Example 92, 1-(1-(2-(2,6-Dioxopiperidin-3-yl)-6-fluoro-1,3-dioxoisoindolin-5-yl)piperidin-4-yl)-3-(4-(4-((4-morpholino-6-(3-(m-tolyl)-1H-pyrazol-1-yl)pyrimidin-2-yl)oxy)piperidin-1-yl)phenyl)urea]
13 | 1 to 100 nM | Cc1cccc(-c2ccn(-c3cc(N4CCOCC4)nc(OCCc4ccc(NC(=O)NC5CCN(C(=O)CC[C@H](NC(=O)[C@@H]6C[C@@H](O)CN6C(=O)[C@@H](NC(=O)C6(F)CC6)C(C)(C)C)c6ccc(-c7scnc7C)cc6)CC5)cc4)n3)n2)c1 [Example 79, (2S,4R)-1-((S)-2-(1-fluorocyclopropane-1-carboxamido)-3,3-dimethylbutanoyl)-4-hydroxy-N—((S)-1-(4-(4-methylthiazol-5-yl)phenyl)-4-(4-(3-(4-(2-((4-morpholino-6-(3-(m-tolyl)-1H-pyrazol-1-yl)pyrimidin-2-yl)oxy)ethyl)phenyl)ureido)piperidin-1-yl)-4-oxobutyl) pyrrolidine-2-carboxamide]
14 | 100 to 10000 nM | Cc1cccc(-c2ccn(-c3cc(N4CCOCC4)nc(Oc4ccc(N5CCC(N6CCN(c7cc8c(cc7F)C(=O)N(C7CCC(=O)NC7=O)C8=O)CC6)CC5)cc4)n3)n2)c1 (stereo not shown) [Example 94, 2-(2,6-Dioxopiperidin-3-yl)-5-fluoro-6-(4-(1-(4-((4-morpholino-6-(3-(m-tolyl)-1H-pyrazol-1-yl)pyrimidin-2-yl)oxy)phenyl)piperidin-4-yl)piperazin-1-yl)isoindoline-1,3-dione]
15 | 100 to 10000 nM | Cc1cccc(-c2ccn(-c3cc(N4CCOCC4)nc(OCCc4ccc(C#CC5CCN(c6cc7c(cc6F)C(=O)N(C6CCC(=O)NC6=O)C7=O)CC5)cc4)n3)n2)c1 (stereo not shown) [Example 90, 2-(2,6-Dioxopiperidin-3-yl)-5-fluoro-6-(4-((4-(2-((4-morpholino-6-(3-(m-tolyl)-1H-pyrazol-1-yl)pyrimidin-2-yl)oxy)ethyl)phenyl)ethynyl)piperidin-1-yl)isoindoline-1,3-dione]
16 | 100 to 10000 nM | Cc1cccc(-c2ccn(-c3cc(N4CCOCC4)nc(Oc4ccc(N5CCN(CC6CCN(c7cc8c(cc7F)C(=O)N(C7CCC(=O)NC7=O)C8=O)CC6)CC5)cc4)n3)n2)c1 (stereo not shown) [Example 96, 2-(2,6-Dioxopiperidin-3-yl)-5-fluoro-6-(4-((4-(4-((4-morpholino-6-(3-(m-tolyl)-1H-pyrazol-1-yl)pyrimidin-2-yl)oxy)phenyl)piperazin-1-yl)methyl)piperidin-1-yl)isoindoline-1,3-dione]

— patent publication US20260317299A1, “PIKFYVE PROTEIN KINASE DEGRADATION AGENT AND USE THEREOF” (Shanghai Institute of Organic Chemistry, Chinese Academy of …, priority 2023, published 2026)
